Test results published in article PMC6151435, “Bioactivity In Vitro of Quercetin Glycoside Obtained in Beauveria bassiana Culture and Its Interaction with Liposome Membranes” (Molecules : A Journal of Synthetic Chemistry and Natural …, 2017).

Key:
[1] = target: T1, COX-1 (Ovis aries, UniProt P05979); experiment: Inhibition of cyclooxygenase 1 (spectrophotometric, TMPD); format: biochemical, sheep; conditions: Tris-HCl pH 8.0, room temperature
T1 construct: purchased Sigma-Aldrich
T1 sequence (P05979 25-600): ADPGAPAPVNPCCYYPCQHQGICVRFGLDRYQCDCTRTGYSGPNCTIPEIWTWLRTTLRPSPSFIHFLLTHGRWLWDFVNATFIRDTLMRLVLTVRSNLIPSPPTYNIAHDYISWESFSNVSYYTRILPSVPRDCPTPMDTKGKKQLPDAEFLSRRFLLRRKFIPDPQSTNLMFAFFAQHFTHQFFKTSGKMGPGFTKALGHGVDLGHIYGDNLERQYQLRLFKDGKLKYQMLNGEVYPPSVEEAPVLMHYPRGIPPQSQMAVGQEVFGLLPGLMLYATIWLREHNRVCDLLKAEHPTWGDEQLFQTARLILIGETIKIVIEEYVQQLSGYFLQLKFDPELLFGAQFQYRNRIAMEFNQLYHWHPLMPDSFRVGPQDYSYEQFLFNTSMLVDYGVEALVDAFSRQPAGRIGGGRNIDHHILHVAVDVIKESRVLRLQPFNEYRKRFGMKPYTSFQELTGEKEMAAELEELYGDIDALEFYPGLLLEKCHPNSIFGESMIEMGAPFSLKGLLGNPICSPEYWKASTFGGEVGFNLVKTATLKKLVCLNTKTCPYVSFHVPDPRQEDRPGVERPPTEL
Excerpt: The probes 1,6-diphenyl-1,3,5-hexatriene (DPH), 3-[p-(6-phenyl)-1,3,5-hexatrienyl]propionic acid (DPH-PA), Merocyanine 540 (MC540), and N,N,N-trimethyl-4-(6-phenyl-1,3,5-hexatrien-1-yl)phenylammonium p-toluenesulfonate (TMA-DPH) were purchased from Molecular Probes (Eugene, OR, USA). Tris (hydroxymethyl) aminomethane (Tris:HCl) were obtained from “Chempur” (Piekary Śląskie, Poland). Quercetin (Q) was purchased from Sigma-Aldrich. Yellow powder, ^1H-NMR (DMSO-d6) δH: 6.19 (1H, d, J = 2.1 Hz, H-6), 6.41 (1H, d, J = 2.1 Hz, H-8), 6.89 (1H, d, J = 8.5 Hz, H-5′), 7.54 (1H, dd, J = 8.5, 2.2 Hz, H-6′), 7.68 (1H, d, J = 2.2 Hz, H-2′). ^13C-NMR (DMSO-d6) δC: 93.2 (C-8), 98.0 (C-6), 102.9 (C-10), 114.9 (C-2′), 115.4 (C-5′), 119.8 (C-6′), 121.8 (C-1′), 135.6 (C-3), 144.9 (C-3′), 146.6 (C-2), 147.5 (C-4′), 156.0 (C-9), 160.6 (C-5), 163.7 (C-7), 175.7 (C=O).
This experiment, established on the basis of a modified method given in the work by Jang and Pezzuto [68], was conducted by a spectrophotometric measurement of inhibition of the cyclooxygenases’ activity COX-1 and COX-2. […] The concentrations of studied compounds fluctuated in the range 20–100 µM for Q 7-MeGlu and 5–50 µM for Q. Absorbance of the sample was followed for 3 min by measuring it at 1 min intervals, using a spectrophotometer at a wavelength of 611 nm (Cary 100 Bio, Varian) in relation to a reference sample. […]

[2] = test system: T2, human serum albumin (HSA); experiment: Binding to human serum albumin (fluorescence quenching); conditions: for Ksv (Stern–Volmer quenching constant): pH 7.4
T2 construct: purchased Sigma-Aldrich
Excerpt: Fluorescence quenching induced by studied molecules is described using the well-known Stern-Volmer equation [53]:(1) F0/F=1+Kqτ0[Qu]=1+KSV[Qu] where: F0 and F are HSA fluorescence intensities before and after adding quencher, respectively, Kq is a bimolecular quenching constant, τ0 is life time of the fluorophore in the absence of quencher (the fluorescence life time of a biopolymer is about 5 × 10^−9 s, [Qu] is the quencher concentration, and KSV is the Stern–Volmer quenching constant (KSV = Kq × τ0). The plot of F0/F against [Qu] at 310 K is shown in Figure 3A,B. The Stern–Volmer plots are evidently linear in the 1–16 μM range of concentration for studied compounds.
The value of the binding constant Ka is crucial for understanding the distribution of the drug in plasma. A strong binding produces a decrease in plasma concentrations, […] the distribution and the pharmacological effect of the compound [55]. The apparent binding constant (Kb) and number of binding sites (n) can be calculated using the following equation:(2) log(F0−F/F)=logKb+nlog[Qu]
The interaction forces between a drug and a biomacromolecule may include hydrophobic forces, electrostatic interactions, van der Waals interactions, hydrogen bonds, etc. The thermodynamic parameters of binding reaction are the main evidence for confirming a binding force. In order to elucidate the binding mode, the binding constant for flavonoid–HSA complex formation was evaluated at four different temperatures. The thermodynamic parameters of the binding process can be calculated using the Van’t Hoff equation [60]:(3) lnKb=−ΔH/RT+ΔS/R
The enthalpy change ∆H is calculated on the basis of the slope of lnKb vs. […] plot. The free-energy change ΔG is estimated on the basis of the following equation:(4) ΔG=ΔH−TΔS=−RTlnKb where: ΔH ΔG and ΔS are enthalpy, free enthalpy and entropy change, respectively. R is the gas constant 8.314 J·mol^−1·K^−1.
Analysis of Q 7-MeGlu and Q interaction with human serum albumin (HSA) was performed according to the procedure described by Strugała et al.. The fluorescence measurements were performed on a Cary Eclipse fluorimeter equipped with 1.0 cm quartz cells and a thermostat bath. All quenching experiments were performed at 300, 305, 310 and 315 K for HSA in a phosphate buffer solution of pH 7.4 and final concentration 1.5 × 10^−5 M. The excitation wavelength was set at 280 nm (excitation of the Trp and Tyr), and the emission spectra were read at 285–460 nm. The excitation and emission slits were both set to 5 nm. Our method consisted in tracking the quenching of natural HSA fluorescence caused by Q 7-MeGlu and Q (of final concentrations 1, 2, 4, 6, 8, 10, 12, 14 and 16 µM) added successively. The stock solutions of Q 7-MeGlu and Q were prepared by dissolving in methanol. Control sample contained appropriate amount of methanol. […] The experiment was performed in three independent replicates (n = 3).

SMILES | IC50 [1] [µM] | KSV compared with KSV for Q [2] | Ksv (Stern–Volmer quenching constant) ([2]; T 300 K) | Ksv (Stern–Volmer quenching constant) ([2]; T 305 K) | Ksv (Stern–Volmer quenching constant) ([2]; T 310 K) | Ksv (Stern–Volmer quenching constant) ([2]; T 315 K)
CO[C@H]1[C@H](O)[C@@H](O)[C@H](Oc2cc(O)c3c(=O)c(O)c(-c4ccc(O)c(O)c4)oc3c2)O[C@@H]1CO [Q 7-MeGlu, quercetin 7-O-β-D-(4″-O-methyl)glucopyranoside] | 45.1 ± 2.51 | approximately four times lower | 3.837 ± 0.192 * ·10^4 M^−1 | 3.545 ± 0.025 * ·10^4 M^−1 | 3.412 ± 0.045 * ·10^4 M^−1 | 3.182 ± 0.013 * ·10^4 M^−1
O=c1c(O)c(-c2ccc(O)c(O)c2)oc2cc(O)cc(O)c12 [Quercetin, 3,3′,4′,5,7-pentahydroxyflavone] | 15.7 ± 1.73 |  | 17.510 ± 0.152 * ·10^4 M^−1 | 16.719 ± 0.135 * ·10^4 M^−1 | 15.632 ± 0.109 * ·10^4 M^−1 | 13.718 ± 0.058 * ·10^4 M^−1
